How the values were obtained:
HL-60 human leukaemia = assay: Inhibition of tumor cell proliferation at 10 μM, Model A: MTT method; format: cell-based; settings: HL-60, MTT method, read-out: Model A Inhibitory rate (%)
Excerpt: (§1) The evaluation of the compounds according to the present invention on the inhibition rate of the proliferation of four different tumor cells, using the routine method for anti-tumor activity tests in the pharmaceutical filed, for example the method described in the following literature: (J. Immuno/Method, 1983, 65, 55).

[1] = system: BGC-823 human gastric cancer; assay: Inhibition of tumor cell proliferation at 10 μM, Model B: SRB method; format: cell-based; settings: BGC-823, SRB method, read-out: Model B Inhibitory rate (%)
Excerpt: as §1

[2] = system: Bel-7402 human liver cancer; assay: Inhibition of tumor cell proliferation at 10 μM, Model C: SRB method; format: cell-based; settings: Bel-7402, SRB method, read-out: Model C Inhibitory rate (%)
Excerpt: as §1

[3] = system: KB human nasopharyngeal cancer; assay: Inhibition of tumor cell proliferation at 10 μM, Model D: SRB method; format: cell-based; settings: read-out: Model D Inhibitory rate (%)
Excerpt: as §1

[4] = system: human leukaemia HL-60 cells; assay: EC50 on proliferation of HL-60 cells (MTT, 48 h); format: cell-based; settings: read-out: HL-60 EC50 (nmol)
Experimental: (§2) EC50 values of the compounds according to the present invention on the proliferation of human leukaemia HL-60 cells and Bel-7402 cells were determined by using the following method, and the results are shown in Table 2.
Testing method for EC50 values on the human leukaemia HL-60 cells: The human leukaemia HL-60 cells were cultured in vitro. The cells were collected after growth to logarithmic phase, and centrifugated at 1000 rpm for 5 min. The supernatant was discarded and the cells were suspended in an appropriate amount of medium. The cell concentration was adjusted to 1.2×10^4/mL. The cells were seeded into 96-well culture plates in 90 μL per well. For each well of the drug treatment groups, 10 μL of medium-diluted drug was added, whereas for the blank control groups, the same amount of medium was added. Every testing drug was set up for three parallel wells, and also three control wells with only testing drugs (without cell) were set up. Negative control groups were medium containing 0.5% DMSO. After the plate was incubated in an incubator for 48 h, 10 μL of 5 mg/mL MTT was added into each well, and then the plate was placed for 3 h at 37° C. 100 μL of ternary solution (5% SDS, 10 mM HCl, 5% isopropanol) was added into each well, and the plate was kept at 37° C. overnight. The absorbance (OD) was measured at 595 nm/620 nm. The EC50 values were calculated by using Prism Graphpad statistical software.

Bel-7402 cells = assay: EC50 on proliferation of Bel7402 cells (SRB, 48 h); format: cell-based; settings: Homo sapiens, read-out: Bel7402 EC50 (nmol)
Experimental: as §2
Testing method for ED50 values on the human Be17402ce11: After the cells were incubated with the addition of the drugs for 48 h, the plates were taken out. 50 μL of pre-cooled 500 g/L trichloroacetic acid was added into each well. The plates were kept in 4° C. refrigerator for 1 h after standing for 5 min, taken out, washed with deionized water for 5 times, and dried in the air. After the plates were completely dried, 100 μL of 0.4% SRB (formulated in 1% acetic acid) was added into each well. Following staining for 20 min, the staining solution was discarded, and the residue was washed with 1% acetic acid for 5 times to remove the uncombined dye. After being dried in the air, the residue was dissolved in 150 μL of 10 mmol/L unbuffered
Tris basic solution (pH=10.5), and oscillated in an oscillator for 5 min. The absorbance of each well at 490 nm was measured with TECAN enzyme mark instrument. The cells in background control plates were treated in the same way for measuring OD490. The EC50 values were calculated by using Prism Graphpad statistical software.

[5] = system: SK-BR-3 (cell line of erbB2 over-expression); assay: MTT assay on erbB2 over-expressing cell line (72 h); format: cell-based; settings: Homo sapiens; SK-BR-3 cells, MTT, 72 h; read-out: SK-BR-3 (μM), EC50
Experimental: (§3) Experimental operations: Human breast cancer SK-BR-3, MDA-MB-468 cells and human colon cancer HCT 116 cells were cultured in vitro. The cells were collected after growth to logarithmic phase, and centrifugated at 1000 rpm for 5 min. The supernatant was discarded, and the cells were suspended with an appropriate amount of medium. The cell concentration was adjusted to 3.5×10^3/mL. Then the cells were seeded into 96-well culture plates in 100 μL per well, and placed in an incubator (37° C., 5% CO2) to be incubated for 24 h. The testing drugs were added, and the negative control group was added DMSO with the final concentration of 5%. Each group has three parallel wells. After being incubated in the incubator for 72 h, 20 μL of 5 mg/mL MTT was added into each well, and the plate was placed at 37° C. for 4 h. 200 μL of DMSO was added into each well, and then the plate was oscillated in an oscillator for 30 min. […] The EC50 values were calculated by using Prism Graphpad statistical software.

[6] = system: MDA-MB-468 (cell line of EGFR over-expression); assay: MTT assay on EGFR over-expressing cell line (72 h); format: cell-based; settings: Homo sapiens; MDA-MB-468 cells, MTT, 72 h; read-out: MDA-MB-468 (μM), EC50
Experimental: as §3

[7] = system: HCT 116 (cell line of low-expression of both EGFR and erbB2); assay: MTT assay on control cell line with low EGFR and erbB2 expression (72 h); format: cell-based; settings: Homo sapiens; HCT 116 cells, MTT, 72 h; read-out: HCT 116 (μM), EC50
Experimental: as §3

| Compound | inhibition at 10 µM (HL-60 human leukaemia) [%] | inhibition at 10 µM [1] [%] | inhibition at 10 µM [2] [%] | inhibition at 10 µM [3] [%] | EC50 [4] [nM] | EC50 (Bel-7402 cells) [nM] | EC50 [5] [µM] | EC50 [6] [µM] | EC50 [7] [µM] | melting point [°C] |
| --- | --- | --- | --- | --- | --- | --- | --- | --- | --- | --- |
| N#CCCSC(=S)NCc1cccnc1 [Compound 11, 2-cyanoethyl(pyridin-3-ylmethyl)dithiocarbamate] | 72.3 | 60.4 | 86.1 | 93.7 | 1.46 | 27.2 | 2.84 | 9.54 | 10.4 | 58 to 60 |
| CCCCOC(=O)CCSC(=S)NCc1cccnc1 [Compound 47, 2-(butoxycarbonyl)ethyl (pyridin-3-ylmethyl)dithiocarbamate] | – | – | – | – | 25.4 | 6.36 | 4.46 | 12.8 | 7.83 | – |
| [O-][S+](CCSC(=S)NCc1cccnc1)Cc1ccccc1 (stereo not shown) [Compound 16, 2-(benzylsulfinyl)ethyl(pyridin-3-ylmethyl)dithiocarbamate] | 26.1 | 72.3 | 96.1 | 93.1 | – | – | 0.655 | 0.953 | 16.2 | – |
